Assays:
Primary rabbit TSPC = test: TSPC cell proliferation assay (fluorometric kit); format: cell-based; conditions: 10 μM peptide, low serum media, PDSP solvent (DMSO) set as 100%, mean±SE of three experiments
Description: Primary rabbit TSPC were cultured to near-confluence in a 75T cell culture flask and then verified by immunostaining of a TSPC marker, nucleostemin (>98%; green color). Nuclei were stained with Hoechst 33258 (blue color) and visualized by an epifluorescence microscopy. The nucleostemine-positive TSPC were treated with 10 μM 29-mer or its variants for 24 h. The numbers of TSPC after 24-h expansion were detected with a cell proliferation assay kit (BioVision; catalog number: K307). The TSPC treated with PDSP solvent was set as 100%. Results are expressed as mean±SE of three independent experiments.
(§1) Achilles tendons from New Zealand White rabbits (6-8 months old, 3.0-4.0 kg) were used in this study. Achilles tendons were washed two times with sterile phosphate-buffered saline (PBS) containing 50 μg/ml gentamicin. The tendon and tendon sheath were cut into small pieces (1-2 mm^3). Each 100 mg of fragment was then digested in a solution containing 3 mg/ml of type I collagenase and 4 mg/ml of dispase in 1 ml balance salt solution (BSS; Alcone) at 37° C. for 4 hours. The digested tissues were washed three times with PBS and collected by centrifugation (800 g for 10 min). The digested tissues were placed in tissue-culture plates (Falcon Labware; NJ, USA) and resuspended in high-glucose DMEM supplemented with 10% FBS and 50 μg/ml gentamycin, and maintained at 37° C. with 5% CO2. After 5 days, the medium was changed to remove the loosened tissue residues. Subsequently, tendon cells were incubated with 10% FBS medium for 2 days, and then cultured with a basal medium (2% FBS, 1% ITSE, 300 μg/ml L-glutamine, 1% antibiotic-antimicotic solutions) for further 10 days. Culture medium was changed every 3 days. For passage, tendon cells were harvested with 0.25% trypsin/EDTA, cell counting by haemocytometer, approximately 5×10^3 cells were seeded in each well of a 96-well cell culture plate or 2×10^5 cells were seeded in each well of a 6-well cell culture plate for 24 h. These expanded tendon cells were then treated with 10 μM 29-mer or its variants in fresh basal medium for further 24 h and subjected to cell proliferation assay and western blot analysis, respectively.
Cell Proliferation Assay Kit (Fluorometric) was purchased from BioVision (Catalog #: K307) and used to evaluate cell proliferation according to the manufacturer's recommendations. The fluorescence was read at 480 nm for excitation and 538 nm for emission on a SPECTRAmax GEMINI XS fluorescence microplate spectrophotometer (Molecular Devices, Sunnyvale, Calif., USA).
Rabbit TSPC isolation was described above. TSPC in low serum media were treated with 10 μM of one of the 29-mer variants for 24 h. Cell proliferation was examined by a cell proliferation kit based on a kit provided nuclear dye that specifically binds to nucleic acid in the cell and generates green fluorescence.

cyclin D1 = test: Western blot analysis of cyclin D1 expression in TSPC; format: cell-based, rabbit; conditions: TSPC treated 24 h; compared with solvent-treated cells; normalized to β-actin
Description: Primary rabbit TSPC were treated with 10NM 29-mer or its variants for 24 h. Representative blots (A) and densitometric analysis with the SD (B) from three independent experiments are shown. Cyclin D1 expression was normalized to ([…]. *P<0.01 vs. solvent-treated cells. ^#P<0.05 vs. 29-mer-treated cells.
as §1
Cell lysis, SDS-PAGE, and antibodies used for immunoblotting were performed as described (Ho et al., 15-deoxy-Delta(12,14)-prostaglandin J2 induces vascular endothelial cell apoptosis through the sequential activation of MAPKS and p53. J Biol. Chem., 2008; 283(44): 30273-30288). The band intensity in immunoblot was evaluated with a Model GS-700 imaging densitometer (Bio-Rad Laboratories, Hercules, Calif.) and analyzed using Labworks 4.0 software.
However, the 29-mer effect on cyclin D1 protein induction was almost abolished by alanine/glycine replacement at residue S93, A96, Q98, 1103, 1104 and R106, respectively (1.3±0.1, 1.5±0.3, 1.3±0.1, 0.9±0.1, 1.3±0.2, and 1.0±0.3). […] The data also imply that the PDSP at positions Ser93, Ala96, Gln98, Ile103, Ile104, and Arg106 are important for sustaining the PDSP effect on induction of TSPC proliferation.

CD146-positive TSPC = test: CD146 immunostaining of TSPC in injured Achilles tendon; format: in vivo, rat; conditions: 1 week after wounding; peptide/alginate gel; vehicle/alginate 38.3±7.8
Description: (A) Representative CD146-stained longitudinal sections. (Original magnification×200). (B) The number of CD146-positive TSPC per 200×field of view on injured tendon sections. Data are reported as mean±SE. Total CD146^+ cells were evaluated from 6 sections/tendon specimen, with 3 rats in each group. *P<0.001 versus vehicle/alginate-treated tendon; #p <0.001 versus 29-mer/alginate-treated tendon.
To investigate the effects of the 29-mer peptide on tendon healing, a rat model of Achilles tendon injury was established as reported by Orhan et al. (The effect of extracorporeal shock waves on a rat model of injury to tendon Achilles. A histological and biomechanical study. J. Bone Joint Surg. Br. 2004;.86(4):.613-618). Adult 10-week-old male Sprague-Dawley rats (initial body weight=312±11 g) were anesthetized by an intraperitoneal injection of xylazine (10 mg/kg). Then, the left tendo Achilles injury was created by full-thickness insertion of an 18-G needle through tendo Achilles 1 cm proximal to the calcaneum attachment site. This created a horizontal wound that was flanked by intact tendon tissue to prevent the retraction of severed ends. […]
CD146 is one of the TSPC markers. […] To test the mechanism of the 29-mer-induced tendon repair, CD146 immunostaining of TSPC located at injured tendon was measured, at 1 week after wounding. […]

[1] = tested on: cultured tendon stem/progenitor cells (TSPC); conditions: peptide added in culture medium; previous study; cited from earlier work
tendon rupture = conditions: rat model; previous study; cited from earlier work

Which results are given for “SLGAEQRTESIIHRALYYDLISSPDIHGT (listed as Homo sapiens) [29-mer, PEDF-derived short peptide, human PEDF residues 93-121]”?
TSPC proliferation (numbers of TSPC after 24-h expansion) (Primary rabbit TSPC): 135±6.1%; induction of the cyclin D1 protein (cyclin D1): 2.9±0.5 fold; number of CD146-positive TSPC on injured tendon sections (CD146-positive TSPC): 86.8±6.0 cells per 200× field; induction of cultured TSPC proliferation [1]: able to induce cultured tendon stem/progenitor cells (TSPC) proliferation; healing of tendon rupture (tendon rupture): facilitated healing of tendon rupture

Source: patent US20210244791A1, “APPLICATION OF PEDF-DERIVED SHORT PEPTIDES IN TENDON HEALING” (BRIM Biotechnology, Inc., priority 2018, published 2021)
